Experiment [1] concerns secretion of hydrochloric acid in the stomach. Nature of the experiment: Inhibitory Effect Test for the Secretion of Hydrochloric Acid in the Stomach. In kind it is in vivo, Wistar strain male rats. As to conditions: Rattus norvegicus; Wistar male rats, pylorus ligated, histamine dihydrochloride 1 mg/kg/hour stimulated; injected into the duodenum; probit analysis; read-out: ED50 (inhibition of the secretion of hydrochloric acid). The procedure: Wistar strain male rats were used as test animals. The test animals were abstained from food for 24 hours, then the pyloric sphincter of the test animal was ligated under anesthetized condition with urethane (1.5 g/kg), and a perfusion cannula for the stomach was inserted into the stomach.
The stomach was perfused with physiological saline through a peroral catheter, and the quantity of gastric juice secreted was measured by determining the pH and by titrating the total acidity of the perfusate.
The secretion of gastric juice was accelerated by injecting histamine dihydrochloride as the secretion stimulant in the rate of 1 mg/kg/hour continuously through the femoral vein, then the effect of each of the compounds was tested. Each of the test compounds was dissolved in dimethylformamide, and the predetermined dosage (maximum: 30 mg/kg) of each of the test compounds was administered by injecting the test compound solution into the duodenum.
Inhibition rate (%) of the secretion of hydrochloric acid was calculated by taking the value of the hydrochloric acid secreted before the administration of each of the test compounds as the reference. ED50 value of each of the test compounds was calculated from the inhibitory rate (%) of each of the test compounds and treated mathematically by probit (probability unit) analysis.

The target in a further experiment is T1, H^+ -K^+ -ATPase (Sus scrofa, UniProt P19156).
T1 construct: which was prepared from the stomach of swine; from tissue; host or cells: stomach of swine
Nature of the experiment: Inhibitory Effect Test for the Activity of H^+ -K^+ -ATPase. The class given is biochemical. As to conditions: H+-K+-ATPase from the stomach of swine; preincubation pH 6.1, room temperature 30 min; reaction pH 7.4, 37° C. 30 min; read-out: IC50 (50% inhibition dosage). The procedure: H^+ -K^+ -ATPase (hydrogen-potassium-activated adenosine triphosphatase) (protein content: 10 mcg) which was prepared from the stomach of swine was added to PIPES-tris[buffer PIPES-tris(hydroxymethyl)-2-amino-1,3-propanediol buffer (pH=6.1) containing 2 mM of piperazine-N,N'-bis(2-ethanesulfonic acid)], then the resulting mixture was let allowed to stand at room temperature.
Each of the test compounds was dissolved in dimethylformamide, and the dimethylformamide solution was added to the above-mentioned H^+ -K^+ -ATPase buffer solution so as to adjust the final concentration of the test compound to 1.0%. Each of thus prepared mixture was reacted at room temperature for 30 minutes.
Next, the above-mentioned reaction mixture was divided into two portions, and to the one portion thereof was added 1 ml of 75 mM PIPES-tris buffer solution (pH=7.4) (containing 4 mM of MgCl2, 4 mM of Na2 ATP and 20 mM of KCl), on the other hand, to another portion of the reaction mixture was added 1 ml of 75 mM PIPES-tris buffer solution (pH=7.4) (containing 4 mM of MgCl2 and 4 mM of Na2 ATP), respectively. Each of these two series of sample solutions was separately reacted at 37° C. for 30 minutes. Then to each of these reaction mixtures was added 0.3 ml of 40% trichloroacetic acid to terminate the reaction, and was subjected to centrifugal separation at 3,000 rpm for 10 minutes to obtain the supernatent. Next, the inorganic phosphoric acid formed in the reaction mixture was determined by a method according to the article by C. H. Fiske and Y. Subbarow: J. Biol. Chem., Vol. 66, pages 375-400, (1925). The difference of the value obtained by substracting the quantity of inorganic phosphoric acid determined by using PIPES-tris buffer solution without containing 20 mM of KCl from the quantity of inorganic phosphoric acid determined by using PIPES-tris buffer solution containing 20 mM of KCl, was converted into as activity value of enzyme with respect to the unit protein and unit time.
Inhibitory rate (%) of each of the test compounds was obtained from the activity value of the enzyme at the respective dosages in the test groups and those of obtained from the control group, then IC50 (50% inhibition dosage of each of the test compounds) was calculated from the inhibitory rate (%).

T1 sequence (P19156 2-1034 limits assumed): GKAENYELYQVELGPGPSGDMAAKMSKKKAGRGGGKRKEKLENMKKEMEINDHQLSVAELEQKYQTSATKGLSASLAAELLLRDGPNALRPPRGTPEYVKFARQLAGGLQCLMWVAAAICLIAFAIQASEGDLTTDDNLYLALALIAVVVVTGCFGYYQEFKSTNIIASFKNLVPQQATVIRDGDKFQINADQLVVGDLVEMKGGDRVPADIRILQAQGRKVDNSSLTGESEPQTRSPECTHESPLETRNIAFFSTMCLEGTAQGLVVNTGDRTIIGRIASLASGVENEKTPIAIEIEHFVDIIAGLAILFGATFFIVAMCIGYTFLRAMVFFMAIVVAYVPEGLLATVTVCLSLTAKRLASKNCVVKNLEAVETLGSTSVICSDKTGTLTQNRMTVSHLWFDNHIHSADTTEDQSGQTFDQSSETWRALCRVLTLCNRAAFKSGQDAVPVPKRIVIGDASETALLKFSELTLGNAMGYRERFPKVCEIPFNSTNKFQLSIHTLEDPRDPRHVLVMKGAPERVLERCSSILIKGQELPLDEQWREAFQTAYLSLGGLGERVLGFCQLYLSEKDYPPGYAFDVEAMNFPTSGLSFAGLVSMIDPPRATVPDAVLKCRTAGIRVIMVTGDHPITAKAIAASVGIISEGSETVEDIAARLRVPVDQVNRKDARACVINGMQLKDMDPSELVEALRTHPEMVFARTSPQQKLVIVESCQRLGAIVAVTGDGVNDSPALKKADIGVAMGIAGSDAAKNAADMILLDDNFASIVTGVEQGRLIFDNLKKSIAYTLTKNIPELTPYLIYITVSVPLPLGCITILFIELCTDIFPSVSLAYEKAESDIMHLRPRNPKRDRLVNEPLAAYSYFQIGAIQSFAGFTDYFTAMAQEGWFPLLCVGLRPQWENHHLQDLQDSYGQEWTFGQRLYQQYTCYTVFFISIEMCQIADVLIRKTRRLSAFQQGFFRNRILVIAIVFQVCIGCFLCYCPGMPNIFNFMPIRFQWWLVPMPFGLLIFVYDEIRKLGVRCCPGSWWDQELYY
T1 sequence (P18434 whole entry partner): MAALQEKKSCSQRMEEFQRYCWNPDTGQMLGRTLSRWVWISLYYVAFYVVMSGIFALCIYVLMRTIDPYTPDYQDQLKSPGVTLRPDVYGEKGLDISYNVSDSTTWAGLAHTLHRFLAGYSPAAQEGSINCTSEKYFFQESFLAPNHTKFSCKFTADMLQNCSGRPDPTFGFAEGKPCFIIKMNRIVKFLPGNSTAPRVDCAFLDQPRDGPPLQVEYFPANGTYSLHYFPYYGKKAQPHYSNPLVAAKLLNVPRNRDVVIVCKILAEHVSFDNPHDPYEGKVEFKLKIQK

As a reminder, the ED50 is the dose at which the effect has come halfway, by size or by number of responders. Usually IC50 stands for the concentration that gives 50% inhibition. In the case of `COc1ccc2nc([S+]([O-])C3CCCc4cc(C)cnc43)[nH]c2c1` (stereo not shown) [Test compound 26, 3-Methyl-8-(5-methoxy-2-benzimidazolyl)-sulfinyl-5,6,7,8-tetrahydroquinoline], in experiment [1], the ED50 is 15.7 mg/kg. Also, on H^+ -K^+ -ATPase, the IC50 amounted to 3700 nM.

On to `[O-][S+](c1nc2ccc(F)cc2[nH]1)C1CCCc2cccnc21` (stereo not shown) [Test compound 32, 8-(5-Fluoro-2-benzimidazolyl)sulfinyl-5,6,7,8-tetrahydroquinoline], for which the ED50 in experiment [1] was 5.2 mg/kg. Further, the IC50 at H^+ -K^+ -ATPase was determined as 1700 nM.

In the case of `Cc1ccc2nc([S+]([O-])C3CCCc4cccnc43)[nH]c2c1` (stereo not shown) [Test compound 17, 8-(5-Methyl-2-benzimidazolyl)sulfinyl-5,6,7,8-tetrahydroquinoline], the ED50 in experiment [1] stood at 17.2 mg/kg. For the same molecule, the IC50 on H^+ -K^+ -ATPase was determined as 1900 nM.

Take `[O-][S+](c1nc2ccccc2[nH]1)C1CCCc2cccnc21` (stereo not shown) [Test compound 12, 8-(2-Benzimidazolyl)sulfinyl-5,6,7,8-tetrahydroquinoline]: the ED50 in experiment [1] was 8.5 mg/kg. For the same molecule, the IC50 at H^+ -K^+ -ATPase was 1200 nM.

With `[O-][S+](c1nc2ccc(Cl)cc2[nH]1)C1CCCc2cccnc21` (stereo not shown) [Test compound 20, 8-(5-Chloro-2-benzimidazolyl)sulfinyl-5,6,7,8-tetrahydroquinoline], in experiment [1], the ED50 is 4.4 mg/kg. For the same molecule, the IC50 at H^+ -K^+ -ATPase is 1000 nM.

As for `COc1ccc2nc([S+]([O-])C3CCCc4ccc(C)nc43)[nH]c2c1` (stereo not shown) [Test compound 14, 2-Methyl-8-(5-methoxy-2-benzimidazolyl)-sulfinyl-5,6,7,8-tetrahydroquinoline], on H^+ -K^+ -ATPase, the concentration for half-maximal inhibition (IC50) came out at 1500 nM.

With `COc1ccc2nc([S+]([O-])C3CCCc4ccc(O)nc43)[nH]c2c1` (stereo not shown) [Test compound 29, 2-Hydroxy-8-(5-methoxy-2-benzimidazolyl)-sulfinyl-5,6,7,8-tetrahydroquinoline], at H^+ -K^+ -ATPase, the IC50 was 2300 nM.

As to `Cc1cnc2c(c1)CCCC2[S+]([O-])c1nc2cc(Cl)c(Cl)cc2[nH]1` (stereo not shown) [Test compound 52, 3-Methyl-8-(5,6-dichloro-2-benzimidazolyl)-sulfinyl-5,6,7,8-tetrahydroquinoline], on H^+ -K^+ -ATPase, the IC50 came out at 230 nM.

As to `COc1ccnc2c1CCCC2[S+]([O-])c1nc2ccc(C(F)(F)F)cc2[nH]1` (stereo not shown) [Test compound 25, 4-Methoxy-8-(5-trifluoromethyl-2-benzimidazolyl)sulfinyl-5,6,7,8-tetrahydroquinoline], the IC50 on H^+ -K^+ -ATPase was 2900 nM.

In the case of `Cc1cnc2c(c1)CCCC2[S+]([O-])c1nc2ccc(C)cc2[nH]1` (stereo not shown) [Test compound 16, 3-Methyl-8-(5-methyl-2-benzimidazolyl)-sulfinyl-5,6,7,8-tetrahydroquinolin], the IC50 on H^+ -K^+ -ATPase is 1100 nM.

For `COc1cc2nc([S+]([O-])C3CCCc4cccnc43)[nH]c2cc1OC` (stereo not shown) [Test compound 30, 8-(5,6-Dimethoxy-2-benzimidazolyl)sulfinyl-5,6,7,8-tetrahydroquinoline], the IC50 on H^+ -K^+ -ATPase turned out to be 930 nM.

`COc1c(C)cnc2c1CCCC2[S+]([O-])c1nc2cc(F)c(F)cc2[nH]1` (stereo not shown) [Test compound 43, 3-Methyl-4-methoxy-8-(5,6-difluoro-2-benzimidazolyl)sulfinyl-5,6,7,8-tetrahydroquinoline]: the IC50 on H^+ -K^+ -ATPase worked out at 280 nM.

As for `Cc1cnc2c(c1)CCCC2[S+]([O-])c1nc2ccccc2[nH]1` (stereo not shown) [Test compound 15, 3-Methyl-8-(2-benzimidazolyl)sulfinyl-5,6,7,8-tetrahydroquinoline], the IC50 on H^+ -K^+ -ATPase was 1800 nM.

Take `c1ccc(CSc2nc3ncccc3[nH]2)nc1` [Test compound 47, 2-(2-Pyridylmethylthio)imidazo[4,5-b]pyridine, reference compound]: the IC50 at H^+ -K^+ -ATPase is greater than 100000 nM.

Consider `COc1c(C)cnc2c1CCCC2[S+]([O-])c1nc2ccc(Cl)cc2[nH]1` (stereo not shown) [Test compound 50, 3-Methyl-4-methoxy-8-(5-chloro-2-benzimidazolyl)sulfinyl-5,6,7,8-tetrahydroquinoline], for which, on H^+ -K^+ -ATPase, the IC50 amounted to 180 nM.

`COc1c(C)cnc2c1CCCC2[S+]([O-])c1nc2cc(C)c(C)cc2[nH]1` (stereo not shown) [Test compound 38, 3-Methyl-4-methoxy-8-(5,6-dimethyl-2-benzimidazolyl)sulfinyl-5,6,7,8-tetrahydroquinoline]: the IC50 at H^+ -K^+ -ATPase was found to be 340 nM.

With `COc1ccc2nc([S+]([O-])C3CCCc4c(C)ccnc43)[nH]c2c1` (stereo not shown) [Test compound 13, 4-Methyl-8-(5-methoxy-2-benzimidazolyl)-sulfinyl-5,6,7,8-tetrahydroquinoline], the IC50 at H^+ -K^+ -ATPase was 1100 nM.

Take `COCCOc1c(C)cnc2c1CCCC2[S+]([O-])c1nc2ccccc2[nH]1` (stereo not shown) [Test compound 9, 8-(2-Benzimidazolyl)sulfinyl-4-(2-methoxyethoxy)-3-methyl-5,6,7,8-tetrahydroquinoline]: the IC50 on H^+ -K^+ -ATPase was found to be 840 nM.

With `COc1ccnc2c1CCCC2[S+]([O-])c1nc2ccc(F)cc2[nH]1` (stereo not shown) [Test compound 51, 4-Methoxy-8-(5-fluoro-2-benzimidazolyl)-sulfinyl-5,6,7,8-tetrahydroquinoline], the IC50 on H^+ -K^+ -ATPase amounted to 99 nM.

As to `Cc1cnc2c(c1)CCCC2[S+]([O-])c1nc2ccc(F)cc2[nH]1` (stereo not shown) [Test compound 40, 3-Methyl-8-(5-fluoro-2-benzimidazolyl)-sulfinyl-5,6,7,8-tetrahydroquinoline], the IC50 on H^+ -K^+ -ATPase worked out at 1900 nM.
